Measurements as given in BindingDB's records for doi:10.1021/jm960794l (Institute of Cancer Research, 1997).

Assay: Cytotoxicity in T79-A3 (NR-positive) cell lines

Compound	IC50 [µM]
NC(=O)c1c([N+](=O)[O-])ccc(N(CCCl)CCCl)c1[N+](=O)[O-] [3-[Bis-(2-chloro-ethyl)-amino]-2,6-dinitro-benzamide]	> 1000
O=C(NCC(O)CO)c1cc(N(CCCl)CCCl)c([N+](=O)[O-])cc1[N+](=O)[O-] (stereo unspecified) [5-[Bis-(2-chloro-ethyl)-amino]-N-(2,3-dihydroxy-propyl)-2,4-dinitro-benzamide]	89
NC(=O)c1cc(N2CC2)c([N+](=O)[O-])cc1[N+](=O)[O-]	0.89
O=C(NCC(O)CO)c1cc(N(CCI)CCI)c([N+](=O)[O-])cc1[N+](=O)[O-] (stereo unspecified) [5-(bis(2-iodoethyl)amino)-N-(2,3-dihydroxypropyl)-2,4-dinitrobenzamide]	1.9
CS(=O)(=O)CCN(CCCl)c1cc(C(N)=O)c([N+](=O)[O-])cc1[N+](=O)[O-] [5-[(2-Chloro-ethyl)-(2-methanesulfonyl-ethyl)-amino]-2,4-dinitro-benzamide]	3.4
CN(C)CCNC(=O)c1c([N+](=O)[O-])ccc(N(CCCl)CCCl)c1[N+](=O)[O-] [3-[Bis-(2-chloro-ethyl)-amino]-N-(2-dimethylamino-ethyl)-2,6-dinitro-benzamide]	895
NC(=O)c1cc([N+](=O)[O-])cc([N+](=O)[O-])c1N(CCCl)CCCl [2-[Bis-(2-chloro-ethyl)-amino]-3,5-dinitro-benzamide]	7.5
NC(=O)c1cc([N+](=O)[O-])cc([N+](=O)[O-])c1N(CCI)CCI [2-[Bis-(2-iodo-ethyl)-amino]-3,5-dinitro-benzamide]	0.1
NC(=O)c1cc(N(CCBr)CCBr)c([N+](=O)[O-])cc1[N+](=O)[O-] [5-(bis(2-bromoethyl)amino)-2,4-dinitrobenzamide]	0.25
CS(=O)(=O)c1cc([N+](=O)[O-])c(C(N)=O)cc1N(CCCl)CCCl [5-[Bis-(2-chloro-ethyl)-amino]-4-methanesulfonyl-2-nitro-benzamide]	58
O=C(NCC(O)CO)c1cc([N+](=O)[O-])cc([N+](=O)[O-])c1N(CCI)CCI (stereo unspecified) [2-[Bis-(2-iodo-ethyl)-amino]-N-(2,3-dihydroxy-propyl)-3,5-dinitro-benzamide]	4
CS(=O)(=O)CCN(CCS(C)(=O)=O)c1cc(C(N)=O)c([N+](=O)[O-])cc1[N+](=O)[O-] [5-[Bis-(2-methanesulfonyl-ethyl)-amino]-2,4-dinitro-benzamide]	9.3
NC(=O)c1cc([N+](=O)[O-])cc([N+](=O)[O-])c1N(CCBr)CCBr [2-[Bis-(2-bromo-ethyl)-amino]-3,5-dinitro-benzamide]	0.19
O=C(NCC(O)CO)c1cc([N+](=O)[O-])cc([N+](=O)[O-])c1N(CCCl)CCCl (stereo unspecified) [2-[Bis-(2-chloro-ethyl)-amino]-N-(2,3-dihydroxy-propyl)-3,5-dinitro-benzamide]	13
NC(=O)c1cc(N(CCCl)CCCl)c([N+](=O)[O-])cc1[N+](=O)[O-]	15
NC(=O)c1cc(N(CCI)CCI)c([N+](=O)[O-])cc1[N+](=O)[O-] [5-(bis(2-iodoethyl)amino)-2,4-dinitrobenzamide]	0.23
